According to the METLIN SMRT retention time set (Domingo-Almenara et al. 2019):

Assay: gradient 5% acetonitrile 3 min, to 50% in 2 min, to 85% in 15 min, held 3 min, 100 µL/min
Conditions: column: Zorbax Extend-C18 2.1 x 50 mm; eluents: water / acetonitrile, 0.1% formic acid
Method in brief: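 Standards, all pure, were combined into mixtures of ~100 molecules and run at 100 μL/min on a Zorbax Extend-C18 column (2.1 × 50 mm, 1.8 μm) with water and acetonitrile, each containing 0.1% formic acid. A coupled quadrupole time-of-flight mass spectrometer operated in positive and negative ionization mode. Retention time values come from computationally picked adduct peaks, each inspected manually.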

Row | SMILES | RP-LC retention time
1 | CCn1ccc(C(=O)N2CC(c3nc(-c4ccsc4)nn3C)C2)n1 | 695 s
2 | Cc1cc2c(c(=O)n(-c3ccc(F)cc3)c(=O)n2CC(=O)Nc2ccc(F)c(Cl)c2)n1C | 854 s
3 | Cc1ccc(Cn2nc3ccc(S(=O)(=O)N4CCSCC4)cn3c2=O)cc1C | 1000 s
4 | Cc1ccc(-c2nc(-c3ccc4c(c3)nc(C)c(=O)n4C)no2)cc1C | 1180 s
5 | O=C(NC(Cc1ccccc1)c1nc2ccccc2[nH]1)c1cccs1 (stereo not given) | 607 s
6 | Cn1c(N2CCCC(C(=O)NC3CCN(Cc4ccccc4)CC3)C2)cc(=O)n(C)c1=O (stereo not given) | 576 s
7 | O=C(c1ccco1)N1CCN=C1N1CCN(c2cccc(Cl)c2)CC1 | 696 s
8 | O=C(c1cccs1)N1CC(C(=O)N2CCN(c3ccccc3Cl)CC2)C1 | 788 s
9 | COc1ccc(CCN2CC(C(=O)O)CC2=O)cc1OC (stereo not given) | 611 s
10 | Cc1nc(C)c2c(n1)N(Cc1cccc(F)c1)C(=O)CC2 | 666 s
11 | O=C(C1COc2ccccc2O1)N1CCCC(c2nnc(-c3ccccc3F)s2)C1 (stereo not given) | 922 s
12 | Cc1sc(-c2nnc(C3CC3)o2)cc1NC(=O)C(C)c1ccccc1 (stereo not given) | 998 s
13 | O=C(Cc1ccsc1)Nc1ccc2ncnc(N3CCCCC3)c2c1 | 666 s
14 | CCOc1ccc(NC(=O)Cn2cccc2-c2nnc(C3CC3)o2)cc1 | 847 s
15 | COc1ccc(Cl)cc1NC(=O)Cn1c(N2CCOCC2)nc(C)cc1=O | 772 s
16 | CCCN1C(=O)COc2ccc(-c3csc(NC(=O)/C=C/c4ccc(OCC)c(OC)c4)n3)cc21 | 1090 s
17 | CC(C)c1ccc(OCC(O)Cn2c(C3CC3)nc3ccccc32)cc1 (stereo not given) | 788 s
18 | COc1ccc(-c2nc3ncccn3c2NCc2ccc(Cl)cc2)cc1OC | 717 s
19 | COC(=O)C1=CN(c2ccc(Cl)cc2)c2ccccc2S1(=O)=O | 864 s
20 | O=C(c1ccc2c(c1)OCO2)N1CCCn2nc(-c3cccs3)cc2C1 | 796 s
21 | O=C1NC(C(=O)NCC2CCCCC2)Cn2cccc21 (stereo not given) | 681 s
22 | O=C(Nc1cc(-c2ccccn2)no1)C1CCCC1 | 765 s
23 | COc1ccc(CC(=O)NCCc2cn(C)c3ncccc23)cc1Cl | 679 s

Row | SMILES | RP-LC retention time
24 | CCn1c(C(=O)NC(C)CCc2ccccc2)cc2sccc21 (stereo not given) | 1110 s
25 | Cc1nc2ccc(Cl)cn2c(=O)c1NC(=O)c1ccc([N+](=O)[O-])cc1Cl | 668 s
26 | Cc1ccc(C)c(NC(=O)C2CCN(S(C)(=O)=O)c3ccccc3O2)c1 (stereo not given) | 943 s
27 | Cc1ccc(NS(=O)(=O)c2cc3c(s2)CCN(C(=O)C2CCC2)C3)cc1Cl | 1010 s
28 | O=C(CCC1CCCC1)Nc1nc(-c2ccc(F)cc2)cs1 | 1210 s
29 | O=c1c(NCC2CCCCC2)nc2ccncc2n1Cc1ccccc1 | 784 s
30 | CCn1ccc(C(=O)N2CC(n3ccnc3C(C)C)C2)n1 | 566 s
31 | CN1C(=O)CCc2cc(NS(=O)(=O)c3ccc(Br)cc3)ccc21 | 810 s
32 | Cc1ccc(C(CNC(=O)c2cc(-c3ccc4c(c3)CCCC4)on2)N2CCN(C)CC2)o1 (stereo not given) | 838 s
33 | Cc1cccc(CN2CCN(CC(=O)N3CCN(Cc4ccccc4)CC3)C(=O)C2=O)c1 | 608 s
34 | CC1(C(=O)NCc2ccc3c(c2)OCO3)CCCCC(=O)N1 (stereo not given) | 642 s
35 | O=C(Nc1cccc(C(F)(F)F)c1)N1CCC(n2cnnc2C2CC2)C1 (stereo not given) | 701 s
36 | O=C(Nc1ccc(N2CCN(C3CCCC3)C2=O)nc1)c1ccccc1 | 817 s
37 | Cc1ccc(-c2[nH]ncc2CN2CC(F)(F)C[C@H]2CN2CCOCC2)cc1C | 654 s
38 | O=C(NCc1cccs1)NC1CC(=O)N(C2CC2)C1 (stereo not given) | 589 s
39 | COc1ccc(Cn2c(=O)c3sccc3n(Cc3nc(-c4ccc(Cl)c(F)c4)no3)c2=O)cc1 | 1190 s
40 | Cc1cc(NC(=O)COc2cccc3c(=O)n(C)ccc23)no1 | 660 s
41 | Cc1cc(F)ccc1NC(=O)C(C)C1CCN(C(=O)Nc2ccc(Cl)cc2)CC1 (stereo not given) | 974 s
42 | COCCN1C(=O)CCC2(C(=O)NCc3ccc(Cl)cc3)CCCC=C12 (stereo not given) | 787 s
43 | Cc1ccc(Cl)cc1NS(=O)(=O)c1ccc(-c2c(C)noc2C)cc1 | 1010 s
44 | COc1ccc(C(=O)N2CCCn3cc(-c4ccccc4F)nc32)cn1 | 587 s
45 | CC(C)N1CCC(CCNC(=O)C2CN(C(=O)c3ccncc3)CC23CCCCC3)CC1 (stereo not given) | 567 s
46 | O=C(CCn1nnc2cc(-c3noc(-c4cccc(Br)c4)n3)ccc21)N1CCOCC1 | 980 s

Row | SMILES | RP-LC retention time
47 | Cc1ccccc1Nc1c(-c2cccc(Br)c2)nc2ccccn12 | 799 s
48 | O=C(Cn1nc2c3cc(-c4ccccc4)nn3ccn2c1=O)NC1CCCCC1 | 873 s
49 | Cc1ccc(NC(=O)N2CC(n3ccnc3)C2)cc1C | 604 s
50 | CCOc1ccc(N2C=C(C(=O)N3CCOCC3)S(=O)(=O)c3ccc(Cl)cc32)cc1 | 893 s
51 | COc1cccc(N2CCN(S(=O)(=O)c3cccc(-c4nc(-c5ccccc5)no4)c3)CC2)c1 | 1290 s
52 | COc1ccccc1NC(=O)N1CCN(c2cc(C)nc(N3CCCC3)n2)CC1 | 673 s
53 | Cc1nc(C)c(C(=O)NCC23CCCC=C2NC(=O)CC3)s1 (stereo not given) | 633 s
54 | CC(C)(C)c1cc(C(=O)NCc2ccccc2)nc2ccnn12 | 1140 s
55 | CNC(=O)C1CCCN(c2nc3ncn(CC(=O)Nc4cc(Cl)ccc4C)c(=O)c3s2)C1 (stereo not given) | 669 s
56 | Cc1c(C(=O)NC2CC2)cc(-c2ccc(F)cc2)n1C | 830 s
57 | O=C(Nc1cccnc1)C1CCN(S(=O)(=O)c2cc(-c3noc(C4CCC4)n3)cs2)CC1 | 762 s
58 | Cc1occc1C(=O)N1CCc2nn(CC3CC3)c(=O)n2CC1 | 646 s
59 | CCOc1cc(=O)n2c(c1C(=O)NCc1ccc3c(c1)OCO3)CCCC2 | 707 s
60 | O=C(c1ccc(Cl)cc1)N1CCN(c2cnn3cnnc3c2)CC1 | 634 s
61 | CCc1ccc(Oc2cc(N3CCC(C(=O)Nc4ccc(C)c(C)c4)CC3)ncn2)cc1 | 1160 s
62 | NC(=O)c1ccc2c(c1)S(=O)(=O)c1ccccc1C2=O | 727 s
63 | Cc1ccccc1CNC(=O)C1CCCN1S(=O)(=O)c1cc2c(cc1C)NC(=O)C(C)O2 (stereo not given) | 814 s
64 | Cc1cc(NC(=O)c2ccc(-n3ccnc3)nn2)no1 | 553 s
65 | CC(=O)c1cccc(NC(=O)CCc2c(C)nn(-c3cc(N4CCCC4)ncn3)c2C)c1 | 765 s
66 | Clc1ccc(Cc2nnc3ccc(Cl)nn23)cc1 | 823 s
67 | COc1cc2c(cc1OC)C(C(=O)N1CC(C)CC(C)C1)C(c1cccnc1)N(C)C2=O (stereo not given) | 659 s
68 | CCOCCCNC(=O)C(C)n1c(=O)c(C(F)(F)F)nc2cc(C)c(C)cc21 (stereo not given) | 1080 s
69 | COc1ccc(-c2nc(-c3cccc(-c4ccn[nH]4)c3)no2)c(OC)c1 | 936 s

Row | SMILES | RP-LC retention time
70 | Cc1ccc(C(=O)Nc2nc(C)cc(C)c2-c2noc(C)n2)cc1 | 743 s
71 | CCN(CC)c1nc(C(=O)N2CCC(N3CCCCC3)CC2)nc2nc(C)cc(C)c12 | 568 s
72 | O=C(c1cccc(Cl)c1)N1CCN(c2cc(-c3cccnc3)[nH]n2)CC1 | 621 s
73 | CC(C)CN1C(=O)c2cccn2CC1CNC(=O)c1n[nH]c(=O)c2ccccc12 (stereo not given) | 689 s
74 | OC[C@@H]1CN(Cc2ccccn2)C[C@H]1c1nc(-c2cccnc2)no1 | 551 s
75 | CC1CCN(c2cc(-n3cnc(C(=O)NCc4ccc5c(c4)OCO5)c3)ncn2)CC1 | 964 s
76 | Cc1nc(-c2ccc(N3CCN(C(=O)c4ccc(Br)o4)CC3)cc2)no1 | 912 s
77 | Cc1nc(-c2csc(S(=O)(=O)N3CCC(C(=O)NC4CCCCC4)CC3)c2)no1 | 879 s
78 | O=C(Cc1nnc(-c2cnccn2)o1)NCc1ccc(Cl)cc1 | 698 s
79 | CN(C)C[C@@H]1CN(S(C)(=O)=O)C[C@H]1NC(=O)c1cccs1 | 569 s
80 | Cc1ccc(CNC(=O)C2CCN(C(=O)c3ncn4c3COC(c3ccc(Cl)cc3)C4)CC2)cc1 (stereo not given) | 870 s
81 | CCN1CCN(CCNC(=O)Cn2c(=O)n(-c3ccccc3)c3ncccc32)CC1 | 564 s
82 | CCOc1ccc2nc(NC(=O)Cc3csc4nc(-c5ccc(OC)c(OC)c5)cn34)sc2c1 | 784 s
83 | CCn1nccc1C(=O)NC1CCN(c2nc3c(s2)c(C)nn3-c2ccc(F)cc2)CC1 | 1060 s
84 | COc1ccc(-c2oc3ccc(OC)cc3c2C(=O)NCCN2CCOCC2)cc1 | 591 s
85 | COc1ccc(NC(=O)Cn2cccc2-c2nnc(-c3ccccc3)o2)cc1 | 894 s
86 | O=C(c1cn(-c2cc(N3CCSCC3)ncn2)cn1)N1CCN(C2CCCCC2)CC1 | 635 s
87 | O=C1NCCCn2cc(S(=O)(=O)NCc3ccc4c(c3)OCO4)cc21 | 640 s
88 | COCCN1C(=O)[C@H]2CN(Cc3cc(OC)c(OC)c(OC)c3)C[C@H]2C1=O | 578 s
89 | Cc1ccn2cc(-c3ccc(NS(=O)(=O)c4ccc(Br)cc4)cc3)nc2n1 | 689 s
90 | Cc1ccc(-n2nc(N3CCN(C(=O)Nc4cccc(C)c4)CC3)ccc2=O)cc1 | 820 s
